From patent US20240299572A1, “NITROGEN-CONTAINING COMPOUND, CONJUGATE CONTAINING SAID COMPOUND, AND APPLICATION THEREOF” (SHANGHAI DE NOVO PHARMATECH CO., LTD., priority 2021, published 2024)

How the values were obtained:
TLR8 = molecular target: T1, TLR8 (Homo sapiens, UniProt Q9NR97); assay: Cell activity assay of TLR8 (HEK-BLUE-hTLR8, SEAP reporter, Quanti-Blue); assay type: cell-based; conditions: HEK-BLUE-hTLR8 cells, 24 hours
T1 construct: host or cells: HEK293 (HEK-BLUE-hTLR8)
T1 sequence (Q9NR97 27-1041): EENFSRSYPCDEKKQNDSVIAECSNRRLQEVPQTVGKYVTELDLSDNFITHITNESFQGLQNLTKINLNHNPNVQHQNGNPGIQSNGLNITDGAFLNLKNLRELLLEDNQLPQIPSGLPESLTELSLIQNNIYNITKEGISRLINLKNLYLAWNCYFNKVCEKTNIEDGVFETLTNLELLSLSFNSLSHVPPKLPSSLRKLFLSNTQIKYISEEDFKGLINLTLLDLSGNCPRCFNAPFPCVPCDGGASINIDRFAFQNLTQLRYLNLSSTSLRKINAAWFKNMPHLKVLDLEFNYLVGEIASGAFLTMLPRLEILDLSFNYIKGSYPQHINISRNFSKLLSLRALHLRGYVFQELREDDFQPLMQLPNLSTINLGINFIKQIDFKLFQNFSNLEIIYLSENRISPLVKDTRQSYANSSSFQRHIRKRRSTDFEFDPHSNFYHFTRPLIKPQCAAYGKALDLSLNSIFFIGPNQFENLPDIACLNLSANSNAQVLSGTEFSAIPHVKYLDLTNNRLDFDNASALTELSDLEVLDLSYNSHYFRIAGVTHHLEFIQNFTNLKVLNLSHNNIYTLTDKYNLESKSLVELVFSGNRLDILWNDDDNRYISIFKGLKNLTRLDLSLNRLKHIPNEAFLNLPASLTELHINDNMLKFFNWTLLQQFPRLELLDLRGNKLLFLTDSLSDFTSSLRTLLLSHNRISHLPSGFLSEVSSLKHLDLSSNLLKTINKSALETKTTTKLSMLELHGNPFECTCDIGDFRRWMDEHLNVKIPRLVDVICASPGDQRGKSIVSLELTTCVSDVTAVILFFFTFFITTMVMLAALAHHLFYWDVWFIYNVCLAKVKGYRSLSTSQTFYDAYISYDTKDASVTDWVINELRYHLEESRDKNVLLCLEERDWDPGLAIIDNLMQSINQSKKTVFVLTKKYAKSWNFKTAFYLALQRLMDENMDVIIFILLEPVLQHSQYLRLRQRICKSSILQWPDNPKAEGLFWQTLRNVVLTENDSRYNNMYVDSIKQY
Protocol: (§1) In this experiment, TLR7 and TLR8 bioactivity assays of the compound of formula I were determined using a cellular test. This method was performed in human embryonic kidney cells (HEK293) expressing TLR family members such as TLR4, TLR7, TLR8, or TLR9. TLR agonist activates TLR, causing downstream NF-KB activation, thus activating the secreted embryonic alkaline phosphatase (SEAP) reporter gene. Quanti-Blue (InvivoGen) reagent was used to assay the SEAP activity, thus reflecting the activity of TLR7 and TLR8 agonists.
(§2) The detailed experimental method is as follows:
HEK-BLUE-hTLR7 and HEK-BLUE-hTLR8 cell lines were purchased from Invivogen company and cultured in DMEM medium containing 4.5 g/L glucose (Sigma-Aldrich) and 10% fetal bovine serum under a condition of a temperature of 37° C., a humidity of 95%, and 5% CO2.
The test concentration of the compound ranged from 0.5 nM to 15 μM, with a total of 10 concentration gradients. TLR7 or TLR8 agonists with known activity were added thereto as positive controls, and 1 μL of DMSO as a negative control.
Cell treatment was as follows: The cells were removed from the incubator and centrifuged to remove the culture medium, resuspended in a T-150 flask with 10 mL of pre-warmed PBS. 12 mL of pre-warmed culture medium was added thereto, and the cells were pipetted gently up and down, and counted under a microscope. A single cell suspension of 200,000 cells/mL was prepared immediately with culture medium, and 200 μL/well (40,000 cells/well) of the cell suspension was added to a 96-well plate. The final concentration of DMSO was 0.5%.
The compound was added thereto, and the mixture was incubated in a 5% CO2 incubator at 37° C. for 24 hours.
20 μL/well of supernatant was pipetted into 180 μL of Quanti-Blue preheated to 37° C., and the mixture was incubated at 37° C. for 1.5 hours, and the absorbance (OD value) at 650 nm was measured with a spectrophotometer. The calculation formula for the agonistic effect is as follows: • Effect %=(average OD value of the administration group-average OD value of the DMSO group)/(average OD value of the positive drug group-average OD value of the DMSO group)×100 • The concentration-effect curves were fitted with Graphpad software, and EC50 was calculated. The test results are shown in Table 4 (A represents <100 nM, B represents 100 nM to 250 nM, C represents 250 nM to […], D represents >2 μM, / represents not tested).

TLR7 = molecular target: T2, TLR7 (Homo sapiens, UniProt Q9NYK1); assay: Cell activity assay of TLR7 (HEK-BLUE-hTLR7, SEAP reporter, Quanti-Blue); assay type: cell-based; conditions: HEK-BLUE-hTLR7 cells, 24 hours
T2 construct: host or cells: HEK293 (HEK-BLUE-hTLR7)
T2 sequence (Q9NYK1 27-1049): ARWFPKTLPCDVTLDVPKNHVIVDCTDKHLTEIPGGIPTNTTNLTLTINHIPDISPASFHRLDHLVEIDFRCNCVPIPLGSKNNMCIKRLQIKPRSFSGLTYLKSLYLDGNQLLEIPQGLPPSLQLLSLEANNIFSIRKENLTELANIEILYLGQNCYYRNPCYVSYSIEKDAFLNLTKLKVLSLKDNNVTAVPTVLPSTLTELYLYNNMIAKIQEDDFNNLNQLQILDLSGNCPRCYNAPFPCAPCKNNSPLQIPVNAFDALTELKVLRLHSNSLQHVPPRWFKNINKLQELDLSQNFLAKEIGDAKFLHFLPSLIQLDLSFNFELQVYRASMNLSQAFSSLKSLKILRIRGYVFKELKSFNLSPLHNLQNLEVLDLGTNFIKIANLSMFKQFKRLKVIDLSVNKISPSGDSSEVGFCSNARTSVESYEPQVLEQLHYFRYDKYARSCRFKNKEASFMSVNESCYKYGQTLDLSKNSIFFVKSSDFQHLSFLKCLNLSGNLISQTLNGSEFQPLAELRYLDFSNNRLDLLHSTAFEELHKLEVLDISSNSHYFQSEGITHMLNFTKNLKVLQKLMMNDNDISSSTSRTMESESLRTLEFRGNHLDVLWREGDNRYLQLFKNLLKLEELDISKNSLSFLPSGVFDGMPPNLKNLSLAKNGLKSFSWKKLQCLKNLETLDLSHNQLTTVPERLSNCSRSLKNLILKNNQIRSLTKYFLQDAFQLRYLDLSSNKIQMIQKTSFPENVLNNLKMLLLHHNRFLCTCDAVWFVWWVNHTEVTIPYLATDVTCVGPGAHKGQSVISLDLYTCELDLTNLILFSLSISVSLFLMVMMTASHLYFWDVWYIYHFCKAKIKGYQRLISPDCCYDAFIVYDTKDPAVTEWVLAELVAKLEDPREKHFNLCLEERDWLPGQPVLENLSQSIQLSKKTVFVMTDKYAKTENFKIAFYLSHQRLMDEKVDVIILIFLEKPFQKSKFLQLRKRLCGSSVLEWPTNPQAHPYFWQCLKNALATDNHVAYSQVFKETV
Protocol: as §1, §2
HEK-BLUE-hTLR7 and HEK-BLUE-hTLR8 cell lines were purchased from Invivogen company and cultured in DMEM medium containing 4.5 g/L glucose (Sigma-Aldrich) and 10% fetal bovine serum under a condition of a temperature of 37° C., a humidity of 95%, and 5% CO2. […]
Cell treatment was as follows: The cells were removed from the incubator and centrifuged to remove the culture medium, resuspended in a T-150 flask with 10 mL of pre-warmed PBS. 12 mL of pre-warmed culture medium was added thereto, and the cells were pipetted gently up and down, and counted under a microscope. […]
20 μL/well of supernatant was pipetted into 180 μL of Quanti-Blue preheated to 37° C., and the mixture was incubated at 37° C. for 1.5 hours, and the absorbance (OD value) at 650 nm was measured with a spectrophotometer. […]

| Compound | EC50 (TLR8) [nM] | EC50 (TLR7) [nM] |
| --- | --- | --- |
| CCCN(CCC)C(=O)C1=Cc2ccc(C(=O)Nc3cnc4c(c3)CNCC4)nc2N=C(N)C1 [Compound 1, 8-amino-N^6,N^6-di-n-propyl-N^2-(5,6,7,8-tetrahydro-1,6-naphthyridin-3-yl)-7H-pyrido[2,3-b]azepine-2,6-dicarboxamide] | 250 to 1000 |  |
| CCCN(CCO)C(=O)C1=Cc2ccc(C3(C(=O)Nc4cncc(CN)c4)CC3)cc2N=C(N)C1 [Compound 12, 2-amino-8-(1-((5-(aminomethyl)pyridin-3-yl)carbamoyl)cyclopropyl)-N-(2-hydroxyethyl)-N-n-propyl-3H-benzo[b]azepine-4-carboxamide] | 100 to 250 |  |
| CCCN(CCO)C(=O)C1=Cc2ccc(C(=O)Nc3cnc4c(c3)CNCC4)cc2N=C(N)C1 [Compound 13, 2-amino-N^4-(2-hydroxyethyl)-N^4-n-propyl-N^8-(5,6,7,8-tetrahydro-1,6-naphthyridin-3-yl)-3H-benzo[b]azepine-4,8-dicarboxamide] | 250 to 1000 | > 2000 |

Next, values leading:

| EC50 (TLR8) [nM] | EC50 (TLR7) [nM] | Compound |
| --- | --- | --- |
| 100 to 250 |  | CCCN(CCC)C(=O)C1=Cc2ccc(C3(C(=O)Nc4cnc5c(c4)CNCC5)CC3)cc2N=C(N)C1 [Compound 3, 2-amino-N,N-di-n-propyl-8-(1-((5,6,7,8-tetrahydro-1,6-naphthyridin-3-yl)carbamoyl)cyclopropyl)-3H-benzo[b]azepine-4-carboxamide] |
| < 100 |  | CCCN(CCC)C(=O)C1=Cc2c(F)cc(C3(C(=O)Nc4cnc5c(c4)CNCC5)CC3)cc2N=C(N)C1 [Compound 5, 2-amino-6-fluoro-N,N-di-n-propyl-8-(1-((5,6,7,8-tetrahydro-1,6-naphthyridin-3-yl)carbamoyl)cyclopropyl)-3H-benzo[b]azepine-4-carboxamide] |
